Laboratory results as given in PubChem BioAssay AID2305 (GlaxoSmithKline (GSK), 2010).

What follows are compounds tested on P. falciparum 3D7 growth, pLDH absorbance (assay: P. falciparum 3D7 growth inhibition, dose response, strain 3D7 (AID 2305)).
`Fc1ccc([C@H]2N=C(SCCSC3=N[C@H](c4ccc(F)cc4)[C@H](c4ccc(F)cc4)N3)N[C@H]2c2ccc(F)cc2)cc1` gave an IC50 of 910 nM.
In the case of `O=C(/C=C/c1ccc(Cl)c(Cl)c1)NCCCCCN1CCC(NC(=O)Nc2cc(Cl)nc(Cl)c2)CC1`, the IC50 is reported as 980 nM.
Compound `CCN(CCCN1CCCCC1)c1cc(C)nc(Nc2ccc(C)c(C)c2)n1` has an IC50 of 1020 nM.
In the case of `O=C(Nc1cccc(CN2CCN(Cc3ccc(O)cc3)CC2)c1)c1cccc(C(F)(F)F)c1`, the IC50 is reported as 1210 nM.
Work on `COc1ccc(C(=O)CCC(=O)N(Cc2ccc(-c3ccc(CNCCc4ccc(S(C)(=O)=O)cc4)cn3)cc2)C(C)CN(C)C)cc1F` (stereo not given) yielded an IC50 of 650 nM.
In the case of `Cc1ccc(-c2cnc(N)c3cc(-c4ccnc(N)n4)ccc23)cc1`, the IC50 is reported as 810 nM.
`CCCCC1=CC2C(=O)C(C(=O)OC)=CN=C2C=C1OCc1ccccc1` (stereo not given) was tested, and the IC50 was 40 nM.
`COc1ccc(-c2cnc3ccc(NCc4ccc(S(N)(=O)=O)cc4)nn23)cc1` gave an IC50 of 800 nM.
`ON=C1c2cc(OCCN3CCCCC3)c(Cl)cc2-c2cc(Cl)c(OCCN3CCCCC3)cc21` gave an IC50 of 700 nM.
`CCCN1CCN(c2cc(NCC)c3c4c(onc24)-c2ccccc2C3=O)CC1` gave an IC50 of 1060 nM.
With `Cc1nc(C)c(CC(=O)Nc2cccc(-c3cccc(-c4nc5c(C)cccc5[nH]4)c3)c2)s1` the IC50 was 750 nM.
For `CNC(=O)c1ccccc1Nc1nc(Nc2ccc(C(=O)O)cc2)ncc1Cl`, the IC50 was 950 nM.
With `COc1ccc(NCc2cccc(-c3cccc(CNCCc4ccccc4)c3)c2)cc1` the IC50 was 1050 nM.
In the case of `Cc1cc(CN2CC[C@H](NC(=O)c3ccc(Cl)c(Cl)c3)C2)ccc1OCCCN(C)C`, the IC50 is reported as 840 nM.
Work on `COc1ccc(-c2cccc(CNC3CCN(CC4Cn5c(=O)ccc6ccc(F)c4c65)CC3)c2)cc1` (stereo not given) yielded an IC50 of 1090 nM.
`COc1ccc(CCNCCCCNCCc2ccc(OC)c3ccccc23)c2ccccc12` showed an IC50 of 450 nM.
`O=C(NCc1ccc(S(=O)(=O)N2CCC(CN3CCC(c4c[nH]c5ccccc45)CC3)CC2)s1)c1ccccc1` was tested, and the IC50 was 840 nM.
`Cc1[nH]c(C)c(-c2ccc(Oc3ccc(S(C)=O)cc3)cc2)c(=O)c1Br` (stereo not given) was tested, and the IC50 was 760 nM.
`COc1ccc(NC(=O)[C@H](CC(C)C)Nc2cc(C)nc(NCCc3cccs3)n2)cc1` gave an IC50 of 960 nM.
In the case of `CC(=O)c1c(CC(=O)O)c2ccccc2n1O`, the IC50 is reported as 740 nM.
`N=c1n(Cc2ccc(Cl)cc2)c2ccccc2n1CC(O)c1ccc(Cl)c(Cl)c1` (stereo not given) gave an IC50 of 680 nM.
`CCOc1cc(NCCSCc2nc[nH]c2C)nc2ccccc12` gave an IC50 of 790 nM.
Compound `O=C(Cn1c(SCc2cccc(F)c2F)cc(=O)c2ccccc21)N(CCn1ccnc1)Cc1ccc(-c2ccc(C(F)(F)F)cc2)cc1` has an IC50 of 770 nM.
Work on `Cc1cc(Nc2ccc(Cl)c(Cl)c2)n2nc(C)nc2n1` yielded an IC50 of 260 nM.
With `CN(c1cc(NC(=O)c2cccs2)ccn1)C1CCN(Cc2cccc(C#N)c2)CC1` the IC50 was 1260 nM.
`CN(C)CCN(Cc1ccccc1-c1ccc(CNCCc2ccccc2)cc1)C(=O)c1ccccc1` showed an IC50 of 1700 nM.
For `N#Cc1cncc(-c2nc3c(N4CCC(Cc5ccccc5)CC4)cccc3n2C2CCNC2)c1` (stereo not given), the IC50 was 990 nM.
`CN(C)Cc1cccc(-c2cc3c(-c4cnn(C)c4)c(Cl)cnc3[nH]2)c1` showed an IC50 of 910 nM.
With `Cc1cnc2cc3c(cc2c1N1CCN(C)CC1)NCC3` the IC50 was 780 nM.
With `CCCN(Cc1nnc(-c2cccs2)o1)C(=O)C1COc2ccccc2O1` (stereo not given) the IC50 was 850 nM.
Work on `CCN(CC)CCN(Cc1ccc(-c2ccc(C(F)(F)F)cc2)cc1)C(=O)Cn1c(CCc2cccc(F)c2F)cc(=O)cc1-c1ccccc1` yielded an IC50 of 780 nM.
`Cc1nc(-c2ccc(-c3ccc(C(=O)Nc4ccc(Cl)c(N5CCN(C)CC5)c4)cc3)c(C)c2)no1` was tested, and the IC50 was 740 nM.
Work on `CC(=O)Nc1ccc(OCCCCCOc2ccc(NC(C)=O)cc2Cl)c(Cl)c1` yielded an IC50 of 830 nM.
For `CCN1CCN(CCCNc2c3ccc(Cl)cc3nc3ccc(OC)cc23)CC1`, the IC50 was 150 nM.
Work on `CCc1c(C)nc(-n2nc(C)cc2NC(=O)C(CC)c2ccccc2)[nH]c1=O` (stereo not given) yielded an IC50 of 710 nM.
For `COc1ccc(C(=O)Nc2cc(Br)c3c(c2)CNCC3)cc1Br`, the IC50 was 910 nM.
In the case of `Cc1cccc(S(=O)(=O)Nc2cccc(CCN3CCC(N4CCCCC4)CC3)c2)c1`, the IC50 is reported as 1330 nM.
`Cc1cc(NC(=O)c2ccc(-c3ccccc3)cc2)no1` showed an IC50 of 1020 nM.
`CCn1cc2c3c(cc(C(=O)N[C@@H](Cc4ccccc4)[C@H](O)CNC4CCOCC4)cc31)N(C)S(=O)(=O)CC2` gave an IC50 of 210 nM.
`COC(=O)Nc1ccc(-c2ccc(C(=O)NC3CCN(C[C@H](O)c4ccnc5ccc(OC)cc45)CC3)cc2)c(C)c1` gave an IC50 of 690 nM.
For `CC(Cc1ccc(OCc2ccccc2)c(Cl)c1)NCC(O)c1cccc(C(F)(F)F)c1` (stereo not given), the IC50 was 940 nM.
`Cc1cccc2[nH]c(-c3ccc(-c4cccc(NC(=O)c5cncn5C)c4)cc3)nc12` gave an IC50 of 860 nM.
`Nc1nc(N)c2c(CCc3ccc4ccccc4c3)cccc2n1` gave an IC50 of 690 nM.
With `CN(Cc1ccc(C#N)cc1)C1CCN(c2cc(NC(=O)c3ccc(F)cc3)ccn2)CC1` the IC50 was 1430 nM.
In the case of `Cc1cccc(NC(=O)Nc2ccc(I)c(OCCN(C)C)c2)c1C`, the IC50 is reported as 730 nM.
`CCn1cc(CN2CCCC(C(=O)Nc3ccc(-c4nc5ccccc5[nH]4)cc3)C2)cn1` (stereo not given) was tested, and the IC50 was 930 nM.
For `CC(C)(C)c1ccc(C(=O)Nc2ccc(NC(=O)c3ccc([N+](=O)[O-])o3)cc2)cc1`, the IC50 was 840 nM.
`COc1cc(NC(=O)N2CCOC(CCN3CCC4(CCc5ccccc54)CC3)(c3ccc(Cl)c(Cl)c3)C2)cc(OC)c1OC` (stereo not given) was tested, and the IC50 was 160 nM.
With `Cc1cc(NC2CCN(CC3CCCCC3)CC2)nc(Nc2ccccc2Cl)n1` the IC50 was 640 nM.
`CN1CCN(CC(=O)Nc2ccc(-c3csc(-c4nc5ccccc5[nH]4)c3)cc2)CC1` showed an IC50 of 1560 nM.
Work on `COc1cc2nc(N3CCC(CNC(=O)c4ccc(-c5ccc(O)cc5)cc4)CC3)nc(N)c2cc1OC` yielded an IC50 of 170 nM.
For `Cc1cc2cc(NC(=O)Nc3ccnc4ccccc34)ccc2n1C`, the IC50 was 1090 nM.
`O=C(C=Cc1ccc(Cl)c(Cl)c1)NCCCCCN1CCC(CCCNC(=O)c2sc3ccccc3c2Cl)CC1` gave an IC50 of 400 nM.
With `CCCCCCCCCn1c(NCc2cc(Cl)ccc2O)nc2ccccc21` the IC50 was 830 nM.
`O=C(NCC1CCN(CCN2CCc3ccc4c(c3C2)OCO4)CC1)c1ccc(-c2ccc(C(F)(F)F)cc2)cc1` was tested, and the IC50 was 860 nM.
In the case of `CN(C)CCN(C)Cc1ccc(-c2ccc(NC(=O)c3cccc(Cl)c3)cc2)cc1`, the IC50 is reported as 1140 nM.
`c1cc(-c2cc3ccc(C4=NCCN4)cc3[nH]2)ccc1C1=NCCN1` gave an IC50 of 220 nM.
Work on `c1ccc2[nH]c(-c3ccc(-c4ccc(CN5CCC(N6CCCCC6)CC5)cc4)s3)nc2c1` yielded an IC50 of 150 nM.
With `CN(c1ncc(-c2cccc(CNCc3ccccc3O)c2)cn1)C1CCCCC1` the IC50 was 820 nM.
Compound `COc1ccc(C(=O)NCc2ccc(N)nc2C)cc1Nc1ncc(-c2cccc(N(C)C)c2)cn1` has an IC50 of 900 nM.
`COc1ccc(Nc2ccnc3cc4ccccc4cc23)cc1` was tested, and the IC50 was 680 nM.
`CC(Cc1ccc(OCc2ccccc2)cc1)Nc1nc2ccccc2c(=O)[nH]1` (stereo not given) was tested, and the IC50 was 570 nM.
`Cc1ccc2ncc(Cl)c(CCN3CCC(NCc4ccc5c(n4)NC(=O)CS5)CC3)c2n1` showed an IC50 of 1100 nM.
Compound `CCOC(=O)c1cc(=O)c2ccc(OCC#N)cc2o1` has an IC50 of 1030 nM.
With `Cc1ccc(-c2ccn(Cc3cccc(OCc4ccccc4)c3)n2)cn1` (tested in a mixture with another compound) the IC50 was 1180 nM.
With `COc1ccc2nccc([C@@H](O)CN3CCC(NC(=O)c4nc(Cl)c(Cl)c(N)c4Cl)CC3)c2c1` the IC50 was 1300 nM.
Work on `O=C(NC1CCC(CN2CCC(c3c[nH]c4ccccc34)CC2)CC1)c1cc(-c2ccccc2Cl)oc1C(F)(F)F` (stereo not given) yielded an IC50 of 770 nM.
`CN(Cc1cccc(C#N)c1)C1CCN(c2cc(NC(=O)c3cccc(F)c3)ccn2)CC1` gave an IC50 of 930 nM.
Compound `O=C(Cc1cccc2ccccc12)N1CCc2cc3nccc(N4CCN5CCC[C@H]5C4)c3cc21` has an IC50 of 780 nM.
`CC(C)(C)c1ccc(S(=O)(=O)Nc2cc(Cl)ccc2Cn2ccc(N3CCNCC3)nc2=O)cc1` showed an IC50 of 830 nM.
`CCCCCCCC/C=C\CCCCCCCC(=O)NCc1ccc(O)c(OC)c1` showed an IC50 of 400 nM.
Work on `COc1ccc(CNCc2cccc(-c3cccc(-c4nc5c(C)cccc5[nH]4)c3)c2)cc1` yielded an IC50 of 130 nM.
Work on `CC(C)(CNCc1ccc(C(F)(F)F)cc1)c1nc(-c2ccc(Cl)c(O)c2)c(-c2ccncc2)[nH]1` yielded an IC50 of 730 nM.
Compound `Cc1ccc(S(=O)(=O)n2cc(-c3ccnc(N)c3)c3cc(Br)cnc32)cc1` has an IC50 of 900 nM.
In the case of `CCN(CC)CCc1ccc2c(=O)cc(CCc3cccc(F)c3F)n(CC(=O)N(C)Cc3ccc(-c4ccc(C(F)(F)F)cc4)cc3)c2c1`, the IC50 is reported as 860 nM.
`CCNc1cc(C(=O)N[C@@H](Cc2ccccc2)[C@H](O)CN[C@H](C)c2ccccc2)cc(N2CCCC2=O)c1` gave an IC50 of 50 nM.
`CC[C@H]1CN2CCc3cc(OC)c(OC)cc3[C@@H]2C[C@@H]1C[C@H]1NCCc2c1cc(OC)c(O)c2Cl` was tested, and the IC50 was 140 nM.
Compound `CC(C)(C)c1cc(C(=O)N2CCC(c3ccccn3)CC2)n(Cc2ccccc2)n1` has an IC50 of 960 nM.
Work on `C[C@@H](NCCc1cccc(Cl)c1)[C@@H](O)c1ccc(OCCCCCCOc2ccc([C@H](O)[C@@H](C)NCCc3cccc(Cl)c3)cc2)cc1` yielded an IC50 of 400 nM.
Work on `Cc1ccc(C(=O)c2oc3ccc4c(C)cc(=O)oc4c3c2C)cc1` yielded an IC50 of 1030 nM.
With `Cc1nc(C)c(-c2ccc(Oc3ccc(OC(F)(F)F)cc3)cc2)c(OC(=O)c2ccccc2)c1Cl` the IC50 was 180 nM.
With `Cc1cccc2[nH]c(-c3cccc(-c4ccc(NC(=O)CN5CCOCC5)cc4)c3)nc12` the IC50 was 1050 nM.
`Oc1c(Cl)cc(Nc2nccc(Nc3ccc(Oc4ccccc4)cc3)n2)cc1Cl` gave an IC50 of 790 nM.
`CC(C)NC(C)(C)CN(Cc1ccc(-c2ccc(C(F)(F)F)cc2)cc1)C(=O)Cn1c(CCc2cccc(F)c2F)nc(=O)c2ccccc21` gave an IC50 of 910 nM.
Compound `CCN(CC)CCNC(=O)c1ccc(NC(=O)c2cc(-c3ccncc3)nc3ccccc23)cc1` has an IC50 of 770 nM.
Work on `Fc1ccc2nc(-c3ccc(-c4ccc(CNCCN5CCNCC5)cc4)cc3)[nH]c2c1` yielded an IC50 of 850 nM.
`COc1cc(CNC[C@@H](O)[C@H](Cc2ccccc2)NC(=O)c2cc(OC(C)C)cc(N3CCCS3(=O)=O)c2)cc(OC)c1` showed an IC50 of 800 nM.
For `Cc1cccc(-c2ccc(CNC3CCN(CC4Cn5c(=O)ccc6ccc(F)c4c65)CC3)cn2)c1` (stereo not given), the IC50 was 1530 nM.
`CNCCNCc1ccc(-c2ccc(-c3nc4ccc(F)cc4[nH]3)s2)cc1` gave an IC50 of 770 nM.
With `CCOc1c(CNCCCNc2cc(=O)c3ccccc3[nH]2)cc(Br)cc1OC` the IC50 was 1160 nM.
Compound `CC(C)COc1ccc(Cl)cc1Cc1nc(-c2nc3ccc(CN4CCN(C)CC4)cc3[nH]2)co1` has an IC50 of 910 nM.
Work on `COc1ccc(C(=O)Nc2ccc(Nc3nc(C)cc(N(C)C)n3)cc2)c(OC)c1` yielded an IC50 of 870 nM.
With `O=C(/C=C/c1ccc(Cl)c(Cl)c1)NCCCCCN1CC[C@H](NC(=O)/C=C/c2ccccc2)C1` the IC50 was 1000 nM.
Work on `Fc1cccc(COc2ccc(Nc3ncnc4ccc(-c5nnc(C(F)(F)F)o5)cc34)cc2Cl)c1` yielded an IC50 of 580 nM.
In the case of `Cc1nc(-c2cccc(C(=O)Nc3cnc4ccccc4c3)c2)no1`, the IC50 is reported as 1160 nM.
